{"source": "patent US8580839B2", "about": "“Photosensitizer formulations and their use” (Biolitec Pharma Marketing Ltd, priority 2005, dated 2013)", "assay": "Fluorescence detection of m-THPC tissue accumulation in patients after intravenous injection", "format": "in vivo", "settings": "for fluorescence found/# patients tested: 0.05 mg/kg", "method": "Comparison of tissue accumulation of m-THPC in patients after administration of the standard m-THPC formulation (“m-THPC”) and a low concentration formulation with low dosage of m-THPC (“m-THPC-dl”).\nIn this example, the two formulations were studied and compared to show m-THPC uptake in patient tissue after administration. The standard formulation (“m-THPC”) contained the standard concentration of m-THPC for photodynamic therapy, which is 4 mg/ml. The second formulation (“m-THPC-dl”) is a low concentration formulation containing 0.8 mg/ml of m-THPC. Each formulation was prepared with a mixture of pure propylene glycol and pure ethanol (3:2, v/v) as the excipient. Each patient received a reduced dosage of 0.05 mg of m-THPC per kg of body weight.\nAfter administration of the two different formulations, the fluorescence accumulation in patients was monitored and the large difference in the pharmacokinetics between the m-THPC and m-THPC-dl formulations was found.\nComparison of tissue accumulation of m-THPC in patients after administration of the standard m-THPC formulation (“m-THPC”) and a low concentration formulation when m-THPC is diluted with aqueous lipid containing solubilizing preparation Lipofundin®.\nIn this example, the two formulations were studied and compared to show m-THPC uptake in patient tissue after administration with […]. The standard formulation (“m-THPC”) contained the standard concentration of m-THPC for photodynamic therapy is 4 mg/ml. The second formulation (“m-THPC-Lipo”) is a low concentration formulation containing 0.08 mg/ml of m-THPC (dilution for 50 times, from standard level). It was prepared by the dilution of standard m-THPC solution with the concentration of 4 mg/ml by aqueous lipid containing solubilizing preparation. Lipofundin® MCT (10%, B. Braun Melsungen AG, Melsungen, Germany). Each patient received intravenously the low dosage of 0.05 mg of m-THPC per kg of body weight.\nAfter administration of the two different formulations, the fluorescence accumulation in patients was monitored and a no difference in the pharmacokinetics between the m-THPC and m-THPC-Lipo formulations was found.", "data": [{"smiles": "Oc1cccc(-c2c3nc(c(-c4cccc(O)c4)c4ccc([nH]4)c(-c4cccc(O)c4)c4nc(c(-c5cccc(O)c5)c5ccc2[nH]5)CC4)C=C3)c1", "note": "[m-THPC, Meta-tetra(hydroxyphenyl)chlorin]", "values": [{"measurement": "patients with measurable fluorescence in the tumors", "setting": "1 hour after drug injection", "value": "not detected in any patients"}, {"measurement": "patients with strong fluorescence in the tumors", "setting": "3 hours after injection", "value": "about 30%"}, {"measurement": "fluorescence in perifocal and intact skin", "setting": "2 days post-injection", "value": "there were patients where fluorescence in perifocal and intact skin was not observed"}, {"measurement": "fluorescence found/# patients tested", "setting": "Intact skin, 15 min after injection", "value": "0/11"}, {"measurement": "fluorescence found/# patients tested", "setting": "Intact skin, 1 hour after injection", "value": "0/11"}, {"measurement": "fluorescence found/# patients tested", "setting": "Intact skin, 3 hours after injection", "value": "2/11"}, {"measurement": "fluorescence found/# patients tested", "setting": "Intact skin, 1 day after injection", "value": "8/11"}, {"measurement": "fluorescence found/# patients tested", "setting": "Intact skin, 2 days after injection", "value": "9/11"}, {"measurement": "fluorescence found/# patients tested", "setting": "Perifocal skin, 15 min after injection", "value": "0/11"}, {"measurement": "fluorescence found/# patients tested", "setting": "Perifocal skin, 1 hour after injection", "value": "0/11"}, {"measurement": "fluorescence found/# patients tested", "setting": "Perifocal skin, 3 hours after injection", "value": "2/11"}, {"measurement": "fluorescence found/# patients tested", "setting": "Perifocal skin, 1 day after injection", "value": "10/11"}, {"measurement": "fluorescence found/# patients tested", "setting": "Perifocal skin, 2 days after injection", "value": "All"}, {"measurement": "fluorescence found/# patients tested", "setting": "Tumor, 15 min after injection", "value": "0/11"}, {"measurement": "fluorescence found/# patients tested", "setting": "Tumor, 1 hour after injection", "value": "0/11"}, {"measurement": "fluorescence found/# patients tested", "setting": "Tumor, 3 hours after injection", "value": "4/11"}, {"measurement": "fluorescence found/# patients tested", "setting": "Tumor, 1 day after injection", "value": "All"}, {"measurement": "fluorescence found/# patients tested", "setting": "Tumor, 2 days after injection", "value": "All"}]}]}
